3 molecules from US20260083751A1, “ALLOSTERIC MODULATORS OF ANDROGEN RECEPTOR COACTIVATOR RECRUITMENT FOR CRPC THERAPY” (University of Pittsburgh – Of the Commonwealth System of …, priority 2022, published 2026) can be followed below.

“Also recorded” adds a separate entry of the source.

Broadly, the GI50 is the concentration giving 50% growth inhibition. A word on the IC50: it is the concentration needed to halve the response being measured.

One test has as its system PSA expression in C4-2 cells. Description: Western blot of PSA expression in C4-2 cells. In kind it is cell-based. The conditions noted are these: C4-2 cells, hits 20 μM (enzalutamide 25 μM) 3 h, ±10 nM DHT 24 h. The procedure:
Cell lysate protein concentrations were determined in a bicinchoninic acid (BCA) assay. Equal amounts of cell protein were mixed with SDS-PAGE sample buffer and placed in a heat block at 100° C. for 5 min. The protein constituents of C4-2 cells were separated by SDS-PAGE on 10% separating gels, transferred to nitrocellulose membranes and western blots were probed overnight at 4° C. with a 1:1000 dilution of a rabbit anti-hPSA (Cell Signaling, Danvers, MA) primary antibody in Tris-buffered saline (TBS) Tween 20 (TBST) containing 5% non-fat milk. Membranes were washed 3× in TBST for 10 min, then incubated for 1 h at room temperature with a 1:10,000 dilution of the goat anti-rabbit IgG horse radish peroxidase (HRP) conjugated secondary antibody (Invitrogen, Carlsbad, CA) in TBST containing 5% non-fat milk. Western blots were then washed 3× in TBST and developed with Pierce enhanced chemiluminescence (ECL) western blotting substrate (Thermo Fisher Scientific, Waltham, MA). Images of western blot ECL bands were acquired on an iBright™ 1500 imaging system (Thermo Fisher Scientific, Waltham, MA) and quantified by iBright™ image analysis software.
For orientation: Immunoblotting shows a protein as a band on a membrane.
In the case of `Cc1nsc(NC(=O)N2CCC(Sc3ccccc3C)CC2)n1` [Compound S2-6], the “Endogenous and DHT-enhanced PSA expression” value was “substantially reduced; also recorded: inhibition”.
Same read-out and setting: under `Cc1ccccc1-c1cc(O)c2c(c1)CN(c1nc(C(N)=O)cs1)CCO2` [Compound S1-1] stands “substantially reduced; also recorded: inhibition”; under `Cc1c(-c2ccccc2F)[nH]c2ccc(CNC(=O)CCc3cn[nH]c3)cc12` [Compound S3-11], “substantially reduced; also recorded: inhibition”.

The next test concerns 22Rv1 cells. The test can be described thus: Prostate cancer cell line growth inhibition assay, 22Rv1. Type of test: cell-based. The note with it: Homo sapiens, 22Rv1, 72 h; read-out: AR positive 22Rv1 GI50. The procedure:
(§1) Prostate Cancer Cell Line Growth Inhibition Assays: The PC-3, DU-145, LNCaP, C4-2, and 22Rv1 PC cell line growth inhibition assays have been described previously (Fancher et al., Assay Drug Dev Technol. 2016, 14:453-477; Fancher et al., Assay Drug Dev Technol. 2019, 17:364-386). On day 1, each PC cell line was harvested, counted, and seeded into two 384-well assay plates, a time zero (T0) and a time 72 h (T72) plate. PC cell lines were all seeded at 1,000 cells per well in 45 μL of tissue culture media in uncoated white clear bottom 384-well assay plates (VWR, #82050-076) using a Matrix electronic multichannel pipette (Thermo Fisher Scientific, Waltham, MA) and cultured overnight at 37° C., 5% CO2, and 95% humidity. On day 2, 25 μL of the CellTiter-Glo® (CTG) (Promega Corporation, Madison, WI) detection reagent was dispensed into the wells of the TO assay plate using a Matrix electronic multichannel pipette, and the RLUs were captured on the SpectraMax® M5e (Molecular Devices LLC, Sunnyvale, CA) microtiter plate reader. Also on day 2, 5 μL of compounds were transferred into the test wells of the T72 384-well assay plates which were returned to the incubator for 72 h. Control wells received DMSO alone. On day 5, 25 μL of the CTG detection reagent was dispensed into the wells of the T72 assay plate using a Matrix electronic multichannel pipette, and the RLU's were captured on the SpectraMax® M5e microtiter plate reader platform.
(§2) For the 96-well AR-LBD H^3-DHT radioligand binding assay, eight minimum and maximum plate control wells were utilized to normalize the data. […] To normalize the 72 h compound exposure PC growth inhibition data, the signals from the compound treated wells were processed and expressed as % of the T72 DMSO plate controls. IC50 and GI50 values for each of the bioassays were calculated using GraphPad Prism 9 software to plot and fit data to curves using the Sigmoidal dose response variable slope equation Y=Bottom+[Top-Bottom]/[1+10^(Log EC50−X)*HillSlope].
In the case of `Cc1nsc(NC(=O)N2CCC(Sc3ccccc3C)CC2)n1` [Compound S2-6], the GI50 worked out at 17.9 µM.
As for `Cc1ccccc1-c1cc(O)c2c(c1)CN(c1nc(C(N)=O)cs1)CCO2` [Compound S1-1], the GI50 worked out at 42.5 µM.
Turning to `Cc1c(-c2ccccc2F)[nH]c2ccc(CNC(=O)CCc3cn[nH]c3)cc12` [Compound S3-11], the GI50 turned out to be 13.2 µM.

The test system of another test is LNCaP cells. Description: Prostate cancer cell line growth inhibition assay, LNCaP. The conditions noted are these: Homo sapiens, 72 h, read-out: AR positive LnCaP GI50. Type of test: cell-based. The procedure:
as §1, §2
Regarding `Cc1nsc(NC(=O)N2CCC(Sc3ccccc3C)CC2)n1` [Compound S2-6], the GI50 was determined as 15.6 µM.
Still for that read-out and setting: under `Cc1ccccc1-c1cc(O)c2c(c1)CN(c1nc(C(N)=O)cs1)CCO2` [Compound S1-1] stands 24.4 µM.
As for `Cc1c(-c2ccccc2F)[nH]c2ccc(CNC(=O)CCc3cn[nH]c3)cc12` [Compound S3-11], the GI50 amounted to 6.35 µM.

The test system of a further test is C4-2 cells. The test can be described thus: Prostate cancer cell line growth inhibition assay, C4-2. The conditions noted are these: C4-2, 72 h; read-out: AR positive C4-2 GI50. Type of test: cell-based. The procedure:
as §1, §2
With `Cc1nsc(NC(=O)N2CCC(Sc3ccccc3C)CC2)n1` [Compound S2-6], the GI50 is 8.66 µM.
Take `Cc1ccccc1-c1cc(O)c2c(c1)CN(c1nc(C(N)=O)cs1)CCO2` [Compound S1-1]: the GI50 is 30.7 µM.
For `Cc1c(-c2ccccc2F)[nH]c2ccc(CNC(=O)CCc3cn[nH]c3)cc12` [Compound S3-11], the GI50 amounted to 6.92 µM.

The target in a further test is T1, AR-LBD and SRC1 (Homo sapiens, UniProt P10275).
T1 construct: AR-LBD amino acids 658-919 expressed as a fusion protein with Gal4-DBD; expressed in transfected cells; host or cells: HEK 293, transient co-transfection
T1 sequence (P10275 658-919): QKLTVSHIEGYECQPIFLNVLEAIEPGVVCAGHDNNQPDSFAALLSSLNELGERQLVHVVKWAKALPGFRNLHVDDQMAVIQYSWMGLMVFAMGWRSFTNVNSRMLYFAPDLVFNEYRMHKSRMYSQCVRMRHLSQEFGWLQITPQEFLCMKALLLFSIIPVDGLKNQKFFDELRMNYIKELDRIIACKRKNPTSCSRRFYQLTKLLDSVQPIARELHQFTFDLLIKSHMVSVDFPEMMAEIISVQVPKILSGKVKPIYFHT
Description: AR-SRC1 mammalian 2-hybrid assay. In kind it is cell-based. The note with it: HEK 293 cells; read-out: Inhibition DHT-induced AR-SRC1 mammalian 2 hybrid assay IC50. The source says:
TIF2 and SRC1 Mammalian 2-Hybrid Assays: The 5×GAL4-TATA-luciferase reporter plasmid was a gift from Dr. Richard Maurer from the Oregon Health and Science University (Gonzalez et al., Cell 1989, 59:675-80), and constructs pGAL4-hAR-658-919 (AR-LBD amino acids 658-919 expressed as a fusion protein with Gal4-DBD) (Askew et al., J Biol Chem 2007, 282:25801-16), pVP16-SRC1 (full-length SRC1 expressed as a fusion with VP16 activation domain) (He et al., J Biol Chem 1999, 274:37219-25) and pVP16-Empty vectors were kindly provided to us by Dr. Elizabeth Wilson, from UNC Chapel Hill. pVP16-TIF2 was generated as described previously (Fancher et al., Assay Drug Dev Technol. 2019, 17:364-386). HEK 293 cells were transiently co-transfected with 5 ng of pGal4-AR-LBD, 10 ng of either pVP16-TIF2 or pVP16-SRC1, and 20 ng of the 5×Gal4-TATA-Luc reporter as described previously (Ibid.). HEK 293 cells were bulk co-transfected with the three plasmids that had been individually incubated with FuGENE® 6 transfection agent (Fugent LLC, Middleton, WI) at a 3:1 ratio for 25 min at room temperature (RT) in serum free media (SFM) and then combined with HEK 293 cells that were suspended in DMEM (Cellgro10013CV) with 2 mM L-glutamine (Invitrogen) that was supplemented with 10% fetal bovine serum, and 5,000 cells in a volume of 40 μL were seeded into the wells of white opaque 384-well assay plates (Greiner Bio-one, #781080) and cultured overnight at 37° C., 5% CO2, and 95% humidity. […] 25 μL of BrightGlo® reagent (Promega, Madison, WI) was added to the plate and the relative luminescence units (RLUs) were captured on a SpectraMax® M5e microtiter plate reader (Molecular Devices, LLC, San Jose, CA).
For `Cc1nsc(NC(=O)N2CCC(Sc3ccccc3C)CC2)n1` [Compound S2-6], the IC50 came out at 0.29 µM.
Consider `Cc1ccccc1-c1cc(O)c2c(c1)CN(c1nc(C(N)=O)cs1)CCO2` [Compound S1-1], for which the IC50 was found to be 0.38 µM.
Regarding `Cc1c(-c2ccccc2F)[nH]c2ccc(CNC(=O)CCc3cn[nH]c3)cc12` [Compound S3-11], the IC50 was 0.6 µM.
